Legend:
mold = test: Mold-free shelf life of packaged bread, inspected daily (days to mold)
Procedure: Bread is prepared using the no-time, straight dough method by mixing the following ingredients in a Hobart A200 mixer with a McDuffy attachment for a total of 8 minutes until full gluten development is obtained: flour (100%), water (68%), granulated sugar (7%), shortening (4%), fresh yeast (2.5%), 30% acetic acid vinegar or 300 grain vinegar (0%, 2%, 1% or 0.5%), and citric acid (0% or 0.1%). Mixed dough is rested for 10 minutes on bench then scaled into two 520 gram dough pieces and rounded by hand. Rounded dough is rested 10 minutes then is sheeted and molded into logs. Sheeted and molded logs are placed into oiled bread pans and placed into proof box (National Manufacturing) and set to 110° F. and 80% relative humidity. Dough is proofed to a consistent height, as measured by a template which was 0.75 inches above the rim of the bread pan. Proof time is considered to be time for dough to touch the top of the template minus initial time in the proof box. Proofed dough is then placed into an oven and baked for 20 minutes at a temperature of 420° F. Internal temperature of the bread exiting the oven is 195° F.-200° F. Baked bread is cooled at room temperature on a wire rack for one hour to an internal temperature of between 95° F. and 100° F. After cooling, bread is sliced and packaged in plastic bags and sealed with twist ties. Packaged bread is stored at room temperature 70° F.-75° F. and visually inspected for mold appearance on a daily basis. Bread is considered as expired/failed upon first sign of mold.
Mixed dough is rested for 10 minutes on bench then scaled into two 520 gram dough pieces and rounded by hand. Rounded dough is rested 10 minutes then sheeted and molded into logs. Sheeted and molded logs are placed into oiled bread pans and placed into proof box (National Manufacturing) set to 110° F. and 80% relative humidity. Dough is proofed to a consistent height, as measured by a template which was 0.75 inches above the rim of the bread pan. Proof time is considered to be time for dough to touch the top of the template minus initial time in the proof box. Proofed dough is then placed into an oven and is baked for 20 minutes at a temperature of 420° F. The internal temperature of the bread exiting the oven is 195° F.-200° F. Baked bread is cooled at room temperature on a wire rack for one hour to an internal temperature of between 95° F. and 100° F. After cooling, the bread is sliced and packaged in plastic bags and sealed with twist ties.
Packaged bread is stored at room temperature 70° F.-75° F. Packaged bread is visually inspected for mold appearance on a daily basis. Bread is considered as expired/failed upon first sign of mold.

pH of baked bread = format: physicochemical

CCC(=O)[O-].CCC(=O)[O-].[Ca+2] [Calcium Propionate, calcium propionate]
Days to Mold (mold; Table 4, 0.33%): 15 days | Days to Mold (mold; Table 4, 0.5%): 17 days | Days to Mold (mold; Table 6, white pan bread, 0.33%): 14 days | Days to Mold (mold; Table 7, white pan bread, 0.33%): 14 days | Days to Mold (mold; Table 8, 0.33% (flour basis)): 9 days | Days to Mold (mold; Table 8, 0.50% (flour basis)): 12 days | Days to Mold (mold; Table 8, 0.75% (flour basis)): 23 days | Days to Mold (mold; Table 8, 1.00% (flour basis)): 32 days | Days to Mold (mold; Table 9, White Pan Bread, 0.33%): 11 days | Days to Mold (mold; Table 10, White Pan Bread, 0.33%): 15 days | Days to Mold (mold; Table 10, 0.50%): 17 days | pH Bread (pH of baked bread; Table 4, 0.33%): 5.60 | pH Bread (pH of baked bread; Table 4, 0.5%): 5.45 | pH Bread (pH of baked bread; Table 6, 0.33%): 5.62 | pH Bread (pH of baked bread; Table 7, 0.33%): 5.72 | pH Bread (pH of baked bread; Table 8, 0.33% (flour basis)): 5.57 | pH Bread (pH of baked bread; Table 8, 0.50% (flour basis)): 5.57 | pH Bread (pH of baked bread; Table 8, 0.75% (flour basis)): 5.58 | pH Bread (pH of baked bread; Table 8, 1.00% (flour basis)): 5.59

Source: patent US20130045299A1, “Natural Mold Inhibitor and Methods of Using Same” (priority 2011, published 2013)
